Experimental findings from patent US20100081679A1, “DIAMINOPYRIMIDINES AS FUNGICIDES” (Bayer CropScience AG, priority 2007, published 2010) are described below.

Each structure is given as a SMILES string. Marks after values point to notes of the source that are not given here.

A short description of the first data set: logP determination via retention times, calibrated with unbranched alkan-2-ones. Format: physicochemical. The settings on record: HPLC on reversed-phase C18, method **: 43° C.; mobile phase 0.1% aqueous phosphoric acid and acetonitrile; linear gradient 10% to 95% acetonitrile.
With `CC(C)(C)NS(=O)(=O)c1ccc(Nc2ncc(Cl)c(NC3CC3)n2)cc1` [compound 306], the logP is listed as 2.3**.
The same measure, in the same setting: as for `O=S(=O)(c1ccc(Nc2ncc(Cl)c(NC3CC3)n2)cc1)N1CCCC1` [compound 307], the figure is 2.52**; as for `Cc1cc(Nc2ncc(Cl)c(NC3CC3)n2)c(C)cc1N` [compound 313], 0.87**.
`O=S(=O)(Cc1ccc(Nc2ncc(Cl)c(NC3CC3)n2)cc1)N1CCOCC1` [compound 314]: the logP is reported as 1.57**.
With `CC(C)NS(=O)(=O)Cc1ccc(Nc2ncc(Cl)c(NC3CC3)n2)cc1` [compound 324], the logP was 1.75**.
Same read-out and setting: with `CC(C)NS(=O)(=O)Cc1cccc(Nc2ncc(Cl)c(NC3CC3)n2)c1` [compound 325] the figure was 1.78**; with `CC(C)(C)NS(=O)(=O)Cc1ccc(Nc2ncc(Cl)c(NC3CC3)n2)cc1` [compound 326], 1.99**.
Still for that read-out and setting: as for `CC(C)(C)NS(=O)(=O)Cc1cccc(Nc2ncc(Cl)c(NC3CC3)n2)c1` [compound 327], the figure is 2.05**; as for `O=S(=O)(Cc1ccc(Nc2ncc(Cl)c(NC3CC3)n2)cc1)NC1CC1` [compound 334], 1.58**.
On the same count and under the same terms, as for `O=C1CCCN1c1ccc(Nc2ncc(C(F)(F)F)c(NC3CC3)n2)cc1` [compound 342], the figure is 2.12**.

Staying with this data set, now noted: HPLC on reversed-phase C18, method *: 40° C.; mobile phase 0.1% aqueous formic acid and acetonitrile; linear gradient 10% to 95% acetonitrile.
Turning to `Clc1ccc(Nc2ncc(Cl)c(NC3CC3)n2)cc1` [compound 285], the logP was 2.54*.
The same measure, in the same setting: as for `Clc1cnc(Nc2ccc(-c3cscn3)cc2)nc1NC1CC1` [compound 286], the figure is 1.9*; as for `COC(=O)Cc1ccc(Nc2ncc(Cl)c(NC3CC3)n2)cc1` [compound 287], 1.85*.
On to `FC(F)Oc1ccc(Nc2ncc(Cl)c(NC3CC3)n2)cc1` [compound 288], for which the logP is 2.11*.
For `FC1(F)Oc2ccc(Nc3ncc(Cl)c(NC4CC4)n3)cc2OC1(F)F` [compound 289], the logP is 3.76*.
Still for that read-out and setting: with `COC(=O)Cc1cccc(Nc2ncc(Cl)c(NC3CC3)n2)c1` [compound 290] the figure was 1.73*; with `Clc1cc(Cl)cc(Nc2ncc(Cl)c(NC3CC3)n2)c1` [compound 291], 4.04*; with `CCOC(=O)c1cccc(Nc2ncc(Cl)c(NC3CC3)n2)c1` [compound 292], 2.26*.
Still for that read-out and setting: as for `CCOc1cccc(Nc2ncc(Cl)c(NC3CC3)n2)c1` [compound 293], the figure is 2.06*; as for `Oc1ccc(Nc2ncc(Cl)c(NC3CC3)n2)c(F)c1` [compound 294], 1.26*.
As for `Clc1cnc(Nc2ccc3c(c2)OCO3)nc1NC1CC1` [compound 295], the logP is on record as 1.59*.
The same measure, in the same setting: with `FC(F)(F)Oc1ccc(Nc2ncc(Cl)c(NC3CC3)n2)cc1Cl` [compound 296] the figure was 3.9*; with `Clc1cnc(Nc2cccc(-c3nccs3)c2)nc1NC1CC1` [compound 297], 2.21*.
Consider `O=C1CCCN1c1cc(Nc2ncc(Cl)c(NC3CC3)n2)c(Cl)cc1Cl` [compound 298], for which the logP is 2.59*.
In the case of `Clc1cnc(Nc2ccc(OC3CCCC3)cc2)nc1NC1CC1` [compound 299], the logP is 2.48*.
On the same count and under the same terms, as for `FC(F)(F)Oc1cccc(Nc2ncc(Cl)c(NC3CC3)n2)c1` [compound 300], the figure is 3.18*; as for `FC(F)(F)Oc1cccc(Nc2ncc(Br)c(NC3CC3)n2)c1` [compound 301], 3.68*; as for `CC(C)OC(=O)Nc1cccc(Nc2ncc(Cl)c(NC3CC3)n2)c1` [compound 302], 1.99*.
In the case of `CCN(C(=O)OC)c1ccc(Nc2ncc(Br)c(NC3CC3)n2)cc1` [compound 303], the logP is 2.06*.
As to `CCC(=O)c1cccc(Nc2ncc(Cl)c(NC3CC3)n2)c1` [compound 304], the logP is on record as 2.25*.
Same read-out and setting: with `CCC(=O)c1cccc(Nc2ncc(Br)c(NC3CC3)n2)c1` [compound 305] the figure was 2.32*; with `CCOc1ccc(Nc2ncc(Br)c(NC3CC3)n2)cc1` [compound 308], 1.87*; with `COC(=O)Nc1cccc(Nc2ncc(Br)c(NC3CC3)n2)c1` [compound 309], 1.61*.
On the same count and under the same terms, with `CC1(c2ccc(Nc3ncc(Cl)c(NC4CC4)n3)cc2)CCCC1` [compound 310] the figure was 3.42*.
As for `FC(F)Oc1cc(Nc2ncc(Br)c(NC3CC3)n2)ccc1Cl` [compound 311], the logP was 3.44*.
On the same count and under the same terms, as for `CC(C)(C)C(=O)Nc1cccc(Nc2ncc(Cl)c(NCC3CC3)n2)c1` [compound 312], the figure is 2.14*; as for `CCOC(=O)C1(Nc2nc(Nc3ccccc3)ncc2Cl)CC1` [compound 315], 2.17*.
The same measure, in the same setting: with `CCOC(=O)C1(Nc2nc(Nc3cccc(Cl)c3)ncc2Cl)CC1` [compound 316] the figure was 3.13*; with `CCOC(=O)C1(Nc2nc(Nc3cc(OC)c(OC)c(OC)c3)ncc2Cl)CC1` [compound 317], 2.01*; with `Clc1ccccc1C1(Nc2nc(Nc3ccccc3)ncc2Cl)CC1` [compound 318], 3.66*.
On to `Clc1cccc(Nc2ncc(Cl)c(NC3(c4ccccc4Cl)CC3)n2)c1` [compound 319], for which the logP is listed as 5.18*.
With `COc1cc(Nc2ncc(Cl)c(NC3(c4ccccc4Cl)CC3)n2)cc(OC)c1OC` [compound 320], the logP was 3.06*.
Consider `Fc1ccc(Nc2ncc(Cl)c(NC3CC3)n2)cc1F` [compound 321], for which the logP is 2.59*.
Same read-out and setting: with `CSc1ccc(Nc2ncc(Cl)c(NC3CC3)n2)cc1C(F)(F)F` [compound 322] the figure was 3.48*; with `O=C1CCCN1c1cccc(Nc2ncc(Cl)c(NC3(c4ccccc4Cl)CC3)n2)c1` [compound 323], 2.95*.
Regarding `CC(C)(C)OC(=O)NCc1ccc(Nc2ncc(Br)c(NC3CC3)n2)cc1` [compound 329], the logP was 2.02*.
On the same count and under the same terms, as for `CC(C)(C)OC(=O)Nc1cccc(Nc2ncc(Cl)c(NC3CC3)n2)c1` [compound 330], the figure is 2.27*.
Regarding `CC(C)OC(=O)Nc1cccc(Nc2ncc(Br)c(NC3CC3)n2)c1` [compound 331], the logP is on record as 2.11*.
For the molecule `FC(F)Oc1cccc(Nc2ncc(Br)c(NC3CC3)n2)c1` [compound 332], the logP was 2.66*.
On the same count and under the same terms, with `COC(c1cccc(Nc2ncc(Br)c(NC3CC3)n2)c1)C(F)(F)F` (stereo not shown) [compound 333] the figure was 2.82*.
Same read-out and setting: as for `CCCNS(=O)(=O)Cc1cccc(Nc2ncc(Cl)c(NC3CC3)n2)c1` [compound 335], the figure is 1.81*; as for `CCCOc1cccc(Nc2ncc(Br)c(NC3CC3)n2)c1` [compound 336], 2.83*; as for `CO/N=C/c1ccc(Nc2ncc(Br)c(NC3CC3)n2)cc1` [compound 338], 2.55*.
As for `COC(=O)N(C)c1ccc(Nc2ncc(Cl)c(NC3CC3)n2)cc1` [compound 339], the logP is recorded as 1.63*.
Same read-out and setting: with `C#Cc1cccc(Nc2ncc(Br)c(NC3CC3)n2)c1` [compound 340] the figure was 2.41*; with `COc1cccc(Nc2ncc(Br)c(NC3CC3)n2)c1` [compound 343], 1.9*; with `COc1ccc(Nc2ncc(Br)c(NC3CC3)n2)cc1` [compound 344], 1.63*.
Still for that read-out and setting: with `CS(=O)(=O)c1ccc(Nc2ncc(Br)c(NC3CC3)n2)cc1` [compound 345] the figure was 1.9*; with `CN(C)S(=O)(=O)c1ccc(Nc2ncc(Br)c(NC3CC3)n2)cc1` [compound 346], 2.33*.
Still for that read-out and setting: with `CC(C)(C)C(=O)Nc1ccc(Nc2ncc(Br)c(NC3CC3)n2)cc1` [compound 347] the figure was 1.83*.
As for `CC(=O)Nc1ccc(Nc2ncc(Br)c(NC3CC3)n2)cc1` [compound 348], the logP is recorded as 1.31*.
For `CC(=O)N(C)c1ccc(Nc2ncc(Br)c(NC3CC3)n2)cc1` [compound 349], the logP was 1.54*.
For `O=C(Nc1ccc(Nc2ncc(Br)c(NC3CC3)n2)cc1)C(F)(F)F` [compound 350], the logP is 1.97*.
Same read-out and setting: with `CN(C)C(=O)c1ccc(Nc2ncc(Br)c(NC3CC3)n2)cc1` [compound 351] the figure was 1.56*; with `CC(C)(C)NC(=O)c1ccc(Nc2ncc(Br)c(NC3CC3)n2)cc1` [compound 352], 2.18*.
As to `CSc1ccc(Nc2ncc(Br)c(NC3CC3)n2)cc1` [compound 353], the logP is 2.18*.
Same read-out and setting: with `O=S(=O)(c1cccc(Nc2ncc(Br)c(NC3CC3)n2)c1)N1CCCCC1` [compound 354] the figure was 2.16*; with `CC(C)(C)C(=O)Cc1ccc(Nc2ncc(Br)c(NC3CC3)n2)cc1` [compound 355], 2.39*; with `CCC(=O)c1ccc(Nc2ncc(Br)c(NC3CC3)n2)cc1` [compound 356], 2.68*.
On the same count and under the same terms, as for `CC(=O)c1ccc(Nc2ncc(Br)c(NC3CC3)n2)cc1` [compound 357], the figure is 2.09*; as for `CC(=O)c1cccc(Nc2ncc(Br)c(NC3CC3)n2)c1` [compound 358], 1.85*.
Still for that read-out and setting: as for `Clc1cccc(Nc2ncc(Br)c(NC3CC3)n2)c1` [compound 359], the figure is 2.77*.
Take `CC(C)c1cccc(Nc2ncc(Br)c(NC3CC3)n2)c1` [compound 363]: the logP is given as 2.8*.

The data set is the same for the next values; noted with them: method **: HPLC reversed-phase C 18, 43° C., 0.1% aqueous phosphoric acid and acetonitrile, linear gradient 10% to 95% acetonitrile.
Consider `O=C1OCCN1c1ccc(Nc2ncc(C(F)(F)F)c(NC3CC3)n2)cc1` [compound 367], for which the logP is listed as 2.04**.
`O=C1CCCN1c1cc(Nc2ncc(Cl)c(NC3CC3)n2)ccc1Cl` [compound 368]: the logP is 1.9**.

Staying with this data set, now noted: method *: HPLC reversed-phase C18, 40° C., 0.1% aqueous formic acid and acetonitrile, linear gradient 10% to 95% acetonitrile.
`Ic1cnc(Nc2ccccc2)nc1NC1CC1` [compound 364]: the logP is recorded as 1.82*.
On the same count and under the same terms, with `COC(=S)Nc1ccc(Nc2ncc(Cl)c(NC3CC3)n2)cc1` [compound 365] the figure was 1.8*; with `Cc1ccc(Nc2ncc(Br)c(NC3CC3)n2)cc1O` [compound 366], 1.46*.
For the molecule `O=C1OCCN1c1ccc(Nc2ncc(C(F)(F)F)c(NC3CC3)n2)cc1` [compound 367], the logP is listed as 1.94*;.
